From patent US8557574B2, “Fungal growth inhibitor” (Seikagaku Corporation, priority 2006, dated 2013)

Assays:
COS-7 = assay: MTT assay of hyaluronidase-treated cells; type: cell-based, Cercopithecus aetiopus; settings: COS-7 cells, hyaluronidase 10, 20 or 100 units/mL; data not shown
Protocol: (§1) Assay of living cells was carried out in the same manner as in the reported reference (Infect. Immun., 69, p. 5925-5930 (2001)).
(§2) In briefly describing, firstly, the COS-7 and KB cells were plated on a 96 well plate at a density of 5×10^5 cells/mL. Hyaluronidase (manufactured by Sigma) haying a respective concentration of 10, 20 or 100 units/mL was added to it, and Candida albicans was cultured for 20 hours. MTT solution (20 μg/mL) was added to each well at the final stage of the culturing, and the contents of the plate were incubated for 4 hours. By adding 100 μL of acidic isopropanol (isopropanol containing 0.04M HCl) to this, the red formazan was eluted and thoroughly mixed. Formazan concentration in the solution of each well was measured by a plate reader (manufactured by Dynex) using 570 nm as the testing wavelength and 620 nm as the reference wave length, respectively.

KB cells = assay: MTT assay of hyaluronidase-treated cells; type: cell-based, human; settings: hyaluronidase 10, 20 or 100 units/mL, data not shown
Protocol: as §1, §2

Candida albicans [1] = assay: Candida growth inhibition by cells after removal of cell surface HA with hyaluronidase (quantitative plate count); type: cell-based; settings: various concentrations of hyaluronidase, E:T 80:1, FIG. 2
Protocol: The cells were treated using hyaluronidase (manufactured by Sigma) (50 units/10^6 cells) at 37° C. for 2 hours (J. Oral Sci., 45, p. 85-91 (2003)). The cells after the treatment were washed twice with phosphate buffered saline (pH 7.2, to be referred to as “PBS” hereinafter) and re-suspended in DMEM.
In order to monitor growth inhibition of Candida albicans, a quantitative plate count method was used (J. Infect. Dis., 182, p. 1479-1485 (2000), Infect. Immun., 69, p. 7091-7099 (2001), Med. Mycol., 37, p. 251-259 (1999)). In briefly describing, a co-culture mixture of the same effector and target was incubated at 37° C. for 9 hours under a condition of 5% CO2. […] It was incubated at 30° C. for 48 hours, and the colony forming unit (to be referred to as “CFU” hereinafter) was counted. Hereinafter, counted value of CFU of the sample incubated in the presence of HA is referred to as “test CFU”.
As a control, respective Candida species was incubated in the absence of HA, and this was subjected to the plating in the same manner. Hereinafter, counted value of CFU on the sample is referred to as “control CFU”.
Growth inhibition ratio (%) was calculated from the value of “test CFU” and the value of “control CFU” of its corresponding Candida species based on the following formula. […]

Candida albicans [2] = assay: Living body staining of Candida species (FDA/PI); type: cell-based; settings: conclusion from living body staining
Protocol: Co-culturing of an epithelial cell with a Candida species (effector:target ratio (to be referred to as “E:T” hereinafter) is 20:1, 40:1 or 80:1) was carried out in 100 μl of a medium using a 96 well plate (manufactured by Costar). After 9 hours of incubation, the co-culture mixture was recovered and washed twice. Fluorescein diacetate (which stain living cells, to be referred to as “FDA” hereinafter) (50 μg/mL) and propidium iodide (which stain dead cells, to be referred to as “PI” hereinafter)(1 μg/mL) (both manufactured by Sigma) (Adv. Biochem. Eng. Biotechnol., 62, p. 33-73 (1998), Anal. Chem., 37, p. 1219-1221 (1965)) were simultaneously added to the pellet of cells and incubated at room temperature for 20 minutes in the dark. In this connection, optimum concentrations of the respective pigments were determined by a preliminary test.
After the incubation, the co-culture mixture was washed with PBS and then with PBS containing 20% FCS, respectively, and then again washed with PBS. The pellet was resuspended in 100 μl, of PBS, and a 5 μL thereof was put on a slide glass and observed under a fluorescent phase contrast microscope (DP-70 manufactured by Olympus Corporation). Growth inhibition of Candida species by the epithelial cell was confirmed by 9 hours of a growth inhibition assay. […]

[3] = system: Candida glabrata ATCC 2001, Candida krusei ATCC 6258 and Candida tropicalis ATCC 4563; assay: Activity of inhibiting growth for various Candida species by HA (absorbance at 660 nm); type: cell-based; settings: other Candida species 5×10^5 cells/mL, 9 hours with HA of 2,000 kDa; FIG. 5
Protocol: Additionally, other Candida species (Candida glabrata ATCC 2001, Candida krusei ATCC 6258 and Candida tropicalis ATCC 4563) were prepared by allowing them to grow at 37° C. overnight in the GP broth under an aerobic condition. Culture mixtures of these Candida species (cell density: 5×10^5) were incubated at 37° C. for 9 hours under a condition of 10% CO2 together with various final concentrations (0.1 mg/mL, 1.0 mg/mL) of HA having a weight average molecular weight of 2,000 kDa.
(§3) After completion of the incubation, in order to evaluate the degree of growth of each Candida species, the culture medium was thoroughly mixed, and its absorbance at a wavelength of 660 nm was measured. Hereinafter, absorbance of the sample incubated in the presence of HA is referred to as “ODtest”. As a control, the absorbance at a wavelength of 660 nm was measured using a sample of each Candida species incubated in the same manner in the absence of HA. Hereinafter, absorbance of this control is referred to as “ODcontrol”.
(§4) Growth inhibition ratio (%) was calculated from the value of “ODtest” and the value of “ODcontrol” of its corresponding Candida species based on the following formula. Growth inhibition ratio (%)=(1−ODtest/ODcontrol)×100 (1-5-2) Quantitative Plate Count […]

Candida albicans [4] = assay: Analysis of the activity of inhibiting Candida growth of HA (absorbance at 660 nm); type: cell-based; settings: Candida albicans 5×10^5 cells/mL, 9 hours with HA of various concentration (0.1, 1.0 mg/mL) and weight average molecular weight; FIG. 3
Protocol: Co-culture of HA and Candida was carried out in 100 μl of a medium using a 96 well plate (manufactured by Iwaki). Candida albicans was prepared by growing it at 37° C. overnight in the GP broth under an aerobic condition. The Candida albicans culture mixture was incubated at 37° C. for 9 hours under a condition of 10% CO2 in the presence of various final concentrations (0.1 mg/mL, 1.0 mg/mL) of HA having various sizes (tetradecasaccharide, weight average molecular weight 60 kDa, 250 kDa, 800 kDa or 2,000 kDa).
as §3, §4

Substance	influence upon the life or death of the cells (MTT) (COS-7)	influence upon the life or death of the cells (MTT) (KB cells)	activity of inhibiting Candida growth of the COS-7 cell after hyaluronidase treatment (Candida albicans [1])	nature of the activity of inhibiting Candida growth (bactericidal or bacteriostatic) (Candida albicans [2])	activity of inhibiting growth for other Candida species (growth inhibition ratio) [3]	activity of inhibiting the Candida albicans growth (growth inhibition ratio) (Candida albicans [4])
hyaluronidase	does not exert influence upon the life or death of the cells	does not exert influence upon the life or death of the cells	reduced	–	–	–
hyaluronic acid [HA]	–	–	–	not bactericidal but rather bacteriostatic	exerts its activity of inhibiting growth	has activity of inhibiting the Candida albicans growth
